Test results as given in patent US20100273816A1, “Quinazoline Compounds” (priority 2007, published 2010).

Assays:
[1] = target: T1, human LXRβ (Homo sapiens, UniProt P55055); assay: Ligand-binding test procedure for human LXRβ (3H T0901317 tracer, flash plates); conditions: biotinylated hLXRβ from E. coli extract, +4° C. over night, read-out: hLXRB binding assay Mean IC50
T1 construct: biotin (biotinylated); made in house; host or cells: E. coli (crude extract)
T1 sequence (P55055 1-460): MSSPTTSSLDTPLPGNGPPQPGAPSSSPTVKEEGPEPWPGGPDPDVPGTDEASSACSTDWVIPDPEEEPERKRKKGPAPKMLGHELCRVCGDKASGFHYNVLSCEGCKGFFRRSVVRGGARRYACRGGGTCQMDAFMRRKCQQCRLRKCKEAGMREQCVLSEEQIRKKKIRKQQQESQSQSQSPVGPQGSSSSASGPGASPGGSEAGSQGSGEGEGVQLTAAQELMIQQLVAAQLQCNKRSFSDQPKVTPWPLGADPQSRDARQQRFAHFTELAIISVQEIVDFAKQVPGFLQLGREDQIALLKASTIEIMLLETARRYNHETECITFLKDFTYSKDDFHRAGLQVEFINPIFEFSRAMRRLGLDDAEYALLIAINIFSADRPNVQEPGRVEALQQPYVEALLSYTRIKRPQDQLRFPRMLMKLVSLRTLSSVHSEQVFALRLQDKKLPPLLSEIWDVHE
Procedure: I. Ligand-Binding Test Procedure for Human LXRβ.
(§1) Buffer: 100 mM KCl, 100 mM TRIS (pH 7.4 at +4° C.), 8.6% glycerol, 0.1 mM PMSF*, 2 mM MTG*, 0.2% CHAPS (* not used in wash buffer)
Receptor source: E. coli extract from cells expressing biotinylated hLXRβ. Extract was made in a similar buffer as above, but with 50 mM TRIS.
(§2) Washed streptavidin and coated flash plates with wash buffer.
(§3) Diluted receptor extract to give Bmax ˜4000 cpm and add to the wells.
(§4) Wrapped the plates in aluminum foil and stored them at +4° C. over night.
(§5) Made a dilution series in DMSO of the test ligands.
(§6) Made a 5 nM solution of the radioactive tracer in buffer.
Mixed 250 μl diluted tracer with 50 of the test ligand from each concentration of the dilution series.
(§7) Washed the receptor-coated flash plates.
(§8) Added 200 μl per well of the ligand/radiolabel mixture to the receptor-coated flash plates.
(§9) Wrapped the plates in aluminum foil and incubate at +4° C. over night.
(§10) Aspirated wells, and wash the flashed plates. Sealed the plate.
(§11) Measured the remaining radioactivity in the plate.

[2] = target: T2, human LXRα (Homo sapiens, UniProt Q13133); assay: Ligand-binding test procedure for human LXRα (3H T0901317 tracer, flash plates); conditions: biotinylated hLXRα from E. coli extract, +4° C. over night, read-out: hLXRa binding assay Mean IC50
T2 construct: biotin (biotinylated); made in house; host or cells: E. coli (crude extract)
T2 sequence (Q13133 1-447): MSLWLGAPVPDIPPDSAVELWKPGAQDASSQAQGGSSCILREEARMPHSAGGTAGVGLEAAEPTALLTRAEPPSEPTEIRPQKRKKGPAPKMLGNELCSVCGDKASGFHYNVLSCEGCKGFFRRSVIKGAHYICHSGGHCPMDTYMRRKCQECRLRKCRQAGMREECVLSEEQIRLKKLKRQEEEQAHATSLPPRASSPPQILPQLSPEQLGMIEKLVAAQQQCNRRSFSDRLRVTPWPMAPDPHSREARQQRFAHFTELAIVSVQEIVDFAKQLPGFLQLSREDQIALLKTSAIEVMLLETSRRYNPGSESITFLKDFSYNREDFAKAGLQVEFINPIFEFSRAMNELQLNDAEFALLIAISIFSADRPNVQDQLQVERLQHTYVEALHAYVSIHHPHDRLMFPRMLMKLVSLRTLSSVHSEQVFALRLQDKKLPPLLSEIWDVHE
Procedure: II. Ligand-Binding Test Procedure for Human LXRα.
as §1
Receptor source: E. coli extract from cells expressing biotinylated hLXRα. Extract was made in a similar buffer as above, but with 50 mM TRIS.
as §2, §3, §4, §5, §6
Mixed 250 μl diluted tracer with 5 μl of the test ligand from each concentration of the dilution series.
as §7, §8, §9, §10, §11

CCS(=O)(=O)c1cc(F)cc(Oc2ccc(Cl)c(-c3nc(C)nc4c(C(F)(F)F)cccc34)c2)c1 [Example 62, 4-{2-chloro-5-[3-(ethylsulfonyl)-5-fluorophenoxy]phenyl}-2-methyl-8-(trifluoromethyl)quinazoline]
IC50 [1]: 63 nM
IC50 [2]: 1430 nM

Cc1nc(-c2cc(OCc3cccc(S(C)(=O)=O)c3)ccc2Cl)c2cccc(C(F)(F)F)c2n1 [Example 63, 4-(2-chloro-5-{[3-(methylsulfonyl)benzyl]oxy}phenyl)-2-methyl-8-(trifluoromethyl)quinazoline]
IC50 [1]: 181 nM
IC50 [2]: 3380 nM

CS(=O)(=O)c1cc(F)cc(Oc2ccc(F)c(-c3ncnc4c(Cl)cccc34)c2)c1 [Example 64, 8-chloro-4-{2-fluoro-5-[3-fluoro-5-(methylsulfonyl)phenoxy]phenyl}quinazoline]
IC50 [1]: 81 nM
IC50 [2]: 1830 nM

CCS(=O)(=O)c1cc(F)cc(Oc2ccc(F)c(-c3ncnc4c(Cl)cccc34)c2)c1 [Example 65, 8-chloro-4-{5-[3-(ethylsulfonyl)-5-fluorophenoxy]-2-fluorophenyl}quinazoline]
IC50 [1]: 152 nM
IC50 [2]: 2950 nM

CS(=O)(=O)c1cccc(COc2ccc(F)c(-c3ncnc4c(Cl)cccc34)c2)c1 [Example 66, 8-chloro-4-(2-fluoro-5-{[3-(methylsulfonyl)benzyl)oxy]phenyl}quinazoline]
IC50 [1]: 99 nM
IC50 [2]: 1540 nM

CCS(=O)(=O)c1cccc(Oc2ccc(F)c(-c3ncnc4c(Cl)cccc34)c2)c1 [Example 67, 8-chloro-4-{2-fluoro-5-[3-(ethylsulfonyl)phenoxy]phenyl}quinazoline]
IC50 [1]: 36 nM
IC50 [2]: 712 nM

CC(C)S(=O)(=O)c1cccc(Oc2ccc(F)c(-c3ncnc4c(Cl)cccc34)c2)c1 [Example 68, 8-chloro-4-(2-fluoro-5-{[3-(1-methylethyl)sulfonyl]phenoxy}phenyl)quinazoline]
IC50 [1]: 15 nM
IC50 [2]: 597 nM

O=S(=O)(CCCOC1CCCCO1)c1cccc(Oc2ccc(F)c(-c3ncnc4c(Cl)cccc34)c2)c1 (stereo not shown) [Example 69, 8-chloro-4-[2-fluoro-5-(3-{[3-(tetrahydro-2H-pyran-2-yloxy)propyl]sulfonyl}phenoxy)phenyl]quinazoline]
IC50 [1]: 95 nM
IC50 [2]: 265 nM

O=S(=O)(CCCO)c1cccc(Oc2ccc(F)c(-c3ncnc4c(Cl)cccc34)c2)c1 [Example 73, 3-({3-[3-(8-chloroquinazolin-4-yl)-4-fluorophenoxy]phenyl}sulfonyl)propan-1-ol]
IC50 [1]: 182 nM
IC50 [2]: 2520 nM

CS(=O)(=O)c1cccc(Oc2ccc(F)c(-c3ncnc4c(Cl)cccc34)c2)c1 [Example 75, 8-chloro-4-{2-fluoro-5-[3-(methylsulfonyl)phenoxy]phenyl}quinazoline]
IC50 [1]: 20 nM
IC50 [2]: 718 nM

CS(=O)(=O)c1cccc(-c2cccc(-c3nc(C4CC4)nc4c(C(F)(F)F)cccc34)c2)c1 [Example 76, 2-cyclopropyl-4-[3′-(methylsulfonyl)biphenyl-3-yl]-8-(trifluoromethyl)quinazoline]
IC50 [1]: 153 nM
IC50 [2]: 714 nM

COc1cccc2c(-c3cc(Oc4cccc(S(C)(=O)=O)c4)ccc3Cl)ncnc12 [Example 77, 4-{2-chloro-5-[3-(methylsulfonyl)phenoxy]phenyl}-8-methoxyquinazoline]
IC50 [1]: 344 nM
IC50 [2]: 10400 nM

CS(=O)(=O)c1cccc(Oc2ccc(Cl)c(-c3ncnc4c(Cl)cccc34)c2)c1 [Example 78, 8-chloro-4-{2-chloro-5-[3-(methylsulfonyl)phenoxy]phenyl}quinazoline]
IC50 [1]: 26 nM
IC50 [2]: 325 nM

O=S(=O)(CCCO)c1cccc(Oc2ccc(F)c(-c3ncnc4c(C(F)(F)F)cccc34)c2)c1 [Example 93, 3-[(3-{4-fluoro-3-[8-(trifluoromethyl)quinazolin-4-yl]phenoxy}phenyl)sulfonyl]propan-1-ol]
IC50 [1]: 47 nM
IC50 [2]: 714 nM
